Tests used:
[1] = target: ALK (Homo sapiens, UniProt Q9UM73); test: ALK enzyme assay (HTRF); type: biochemical; conditions: 0.25 nM ALK, 15.0 μM ATP, values given as pIC50 category
Procedure, shortened: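 Final compound range 0.00017 to 10 μM (twelve 1:3 dilutions). Kinase reaction with ATP and biotinylated synthetic peptide runs 120 min at 20° C, stopped with EDTA; phosphotyrosine detected by HTRF after 60 min. Inhibition referenced to DMSO (1%) and EDTA (0.1 M) controls, curve-fitted.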

[2] = target: T1, NIH-3T3 cells overexpressing human IGF-1R (Homo sapiens, UniProt P08069); test: IGF-1R cellular autophosphorylation (DELFIA); type: cell-based
T1 construct: expressed in transfected cells; host or cells: NIH-3T3 (mouse fibroblasts)
T1 sequence (P08069 31-1367): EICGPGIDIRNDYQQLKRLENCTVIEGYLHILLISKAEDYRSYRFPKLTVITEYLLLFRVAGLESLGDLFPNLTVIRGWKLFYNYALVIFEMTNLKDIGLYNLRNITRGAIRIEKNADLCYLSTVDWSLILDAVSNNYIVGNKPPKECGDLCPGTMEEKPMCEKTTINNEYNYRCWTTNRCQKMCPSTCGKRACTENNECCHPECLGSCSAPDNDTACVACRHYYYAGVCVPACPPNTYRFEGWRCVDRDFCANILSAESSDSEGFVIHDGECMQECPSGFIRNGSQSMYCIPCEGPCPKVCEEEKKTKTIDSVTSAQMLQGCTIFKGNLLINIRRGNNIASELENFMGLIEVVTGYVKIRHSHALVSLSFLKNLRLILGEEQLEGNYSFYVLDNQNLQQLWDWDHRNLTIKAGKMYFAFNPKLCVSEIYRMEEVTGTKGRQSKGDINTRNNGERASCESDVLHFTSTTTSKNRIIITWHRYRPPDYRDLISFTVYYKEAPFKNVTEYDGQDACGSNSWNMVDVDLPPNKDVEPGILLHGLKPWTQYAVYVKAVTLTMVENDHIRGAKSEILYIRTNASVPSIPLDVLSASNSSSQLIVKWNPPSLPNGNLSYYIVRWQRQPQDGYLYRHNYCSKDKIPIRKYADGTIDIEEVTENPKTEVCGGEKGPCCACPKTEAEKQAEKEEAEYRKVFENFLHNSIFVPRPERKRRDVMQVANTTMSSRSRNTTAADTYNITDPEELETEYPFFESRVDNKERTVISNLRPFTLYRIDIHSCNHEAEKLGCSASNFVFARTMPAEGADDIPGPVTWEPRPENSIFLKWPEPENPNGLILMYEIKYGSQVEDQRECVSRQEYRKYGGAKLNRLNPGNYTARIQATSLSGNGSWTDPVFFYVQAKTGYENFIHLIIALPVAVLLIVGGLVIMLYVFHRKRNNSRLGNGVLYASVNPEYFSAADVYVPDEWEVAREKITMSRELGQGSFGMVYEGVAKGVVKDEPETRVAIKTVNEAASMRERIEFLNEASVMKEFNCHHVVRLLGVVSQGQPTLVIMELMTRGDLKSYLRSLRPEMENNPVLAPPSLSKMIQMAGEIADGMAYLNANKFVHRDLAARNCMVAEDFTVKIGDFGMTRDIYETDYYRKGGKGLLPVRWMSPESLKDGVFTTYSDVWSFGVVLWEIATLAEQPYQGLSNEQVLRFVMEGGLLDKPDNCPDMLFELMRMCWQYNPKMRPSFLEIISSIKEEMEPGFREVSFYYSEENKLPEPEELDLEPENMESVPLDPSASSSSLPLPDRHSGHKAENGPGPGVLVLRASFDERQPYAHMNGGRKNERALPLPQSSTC
Procedure, shortened: (§1)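 Receptor autophosphorylation measured by DELFIA, capturing IGF-1R or IRβ and detecting with europium anti-pTyr, reported as percent of IGF-1- or insulin-stimulated signal. Compounds (30 uM to 1.5 nM) added 2 h before ligand, then 15 min stimulation (IGF-1 30 ng/ml or insulin 3 ug/ml).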

[3] = target: T2, NIH-3T3 cells overexpressing human IR (Homo sapiens, UniProt P06213); test: IR cellular autophosphorylation (DELFIA); type: cell-based; conditions: 2 h compound, insulin 3 ug/ml for 15 minutes, IC50 category
T2 construct: expressed in transfected cells; host or cells: NIH-3T3 (mouse fibroblasts)
T2 sequence (P06213 28-1382): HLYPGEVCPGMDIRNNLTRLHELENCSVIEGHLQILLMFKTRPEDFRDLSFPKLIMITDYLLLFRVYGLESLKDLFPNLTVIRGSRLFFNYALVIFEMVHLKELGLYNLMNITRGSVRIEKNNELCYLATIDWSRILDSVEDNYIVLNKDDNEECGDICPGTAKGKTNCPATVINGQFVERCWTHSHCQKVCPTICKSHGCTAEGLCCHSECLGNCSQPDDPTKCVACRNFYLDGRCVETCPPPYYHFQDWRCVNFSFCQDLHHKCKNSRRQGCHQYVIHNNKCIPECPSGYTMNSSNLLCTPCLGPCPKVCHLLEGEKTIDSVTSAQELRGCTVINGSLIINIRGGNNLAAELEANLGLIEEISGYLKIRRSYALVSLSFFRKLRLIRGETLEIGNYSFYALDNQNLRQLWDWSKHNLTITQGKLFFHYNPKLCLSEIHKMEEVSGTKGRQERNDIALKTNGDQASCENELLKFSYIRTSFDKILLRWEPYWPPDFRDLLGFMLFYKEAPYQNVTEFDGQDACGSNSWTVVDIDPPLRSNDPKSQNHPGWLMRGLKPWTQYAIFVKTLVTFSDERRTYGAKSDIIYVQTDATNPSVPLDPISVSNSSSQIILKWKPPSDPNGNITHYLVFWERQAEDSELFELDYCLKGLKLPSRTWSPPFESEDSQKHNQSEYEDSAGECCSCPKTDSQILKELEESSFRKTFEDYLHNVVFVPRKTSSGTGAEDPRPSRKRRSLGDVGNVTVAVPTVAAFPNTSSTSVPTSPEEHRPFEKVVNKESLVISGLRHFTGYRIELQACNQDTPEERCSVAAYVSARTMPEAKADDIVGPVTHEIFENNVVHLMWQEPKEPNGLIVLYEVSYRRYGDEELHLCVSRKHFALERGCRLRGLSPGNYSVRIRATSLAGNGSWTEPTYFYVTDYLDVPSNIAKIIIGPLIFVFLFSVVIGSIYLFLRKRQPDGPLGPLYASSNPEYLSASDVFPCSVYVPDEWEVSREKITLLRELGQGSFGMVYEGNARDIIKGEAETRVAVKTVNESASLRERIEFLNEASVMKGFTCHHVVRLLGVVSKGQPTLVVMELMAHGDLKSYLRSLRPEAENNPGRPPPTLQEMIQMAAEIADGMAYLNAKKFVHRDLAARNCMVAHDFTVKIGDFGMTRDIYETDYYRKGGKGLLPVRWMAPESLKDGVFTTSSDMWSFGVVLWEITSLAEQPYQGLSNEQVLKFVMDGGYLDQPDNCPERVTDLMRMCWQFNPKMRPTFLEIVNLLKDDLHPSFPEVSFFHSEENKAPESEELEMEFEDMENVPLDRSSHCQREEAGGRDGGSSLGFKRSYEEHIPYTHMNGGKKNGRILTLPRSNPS
Procedure, shortened: as §1

[4] = test system: NCI-H929; test: Inhibition of cell proliferation (CellTiter-Glo or InCell analyzer), NCI-H929; type: cell-based; conditions: Homo sapiens, 72 h / 3 days, values given as IC50 category
Procedure, shortened: In one

Chain of ALK (Q9UM73 19-1620): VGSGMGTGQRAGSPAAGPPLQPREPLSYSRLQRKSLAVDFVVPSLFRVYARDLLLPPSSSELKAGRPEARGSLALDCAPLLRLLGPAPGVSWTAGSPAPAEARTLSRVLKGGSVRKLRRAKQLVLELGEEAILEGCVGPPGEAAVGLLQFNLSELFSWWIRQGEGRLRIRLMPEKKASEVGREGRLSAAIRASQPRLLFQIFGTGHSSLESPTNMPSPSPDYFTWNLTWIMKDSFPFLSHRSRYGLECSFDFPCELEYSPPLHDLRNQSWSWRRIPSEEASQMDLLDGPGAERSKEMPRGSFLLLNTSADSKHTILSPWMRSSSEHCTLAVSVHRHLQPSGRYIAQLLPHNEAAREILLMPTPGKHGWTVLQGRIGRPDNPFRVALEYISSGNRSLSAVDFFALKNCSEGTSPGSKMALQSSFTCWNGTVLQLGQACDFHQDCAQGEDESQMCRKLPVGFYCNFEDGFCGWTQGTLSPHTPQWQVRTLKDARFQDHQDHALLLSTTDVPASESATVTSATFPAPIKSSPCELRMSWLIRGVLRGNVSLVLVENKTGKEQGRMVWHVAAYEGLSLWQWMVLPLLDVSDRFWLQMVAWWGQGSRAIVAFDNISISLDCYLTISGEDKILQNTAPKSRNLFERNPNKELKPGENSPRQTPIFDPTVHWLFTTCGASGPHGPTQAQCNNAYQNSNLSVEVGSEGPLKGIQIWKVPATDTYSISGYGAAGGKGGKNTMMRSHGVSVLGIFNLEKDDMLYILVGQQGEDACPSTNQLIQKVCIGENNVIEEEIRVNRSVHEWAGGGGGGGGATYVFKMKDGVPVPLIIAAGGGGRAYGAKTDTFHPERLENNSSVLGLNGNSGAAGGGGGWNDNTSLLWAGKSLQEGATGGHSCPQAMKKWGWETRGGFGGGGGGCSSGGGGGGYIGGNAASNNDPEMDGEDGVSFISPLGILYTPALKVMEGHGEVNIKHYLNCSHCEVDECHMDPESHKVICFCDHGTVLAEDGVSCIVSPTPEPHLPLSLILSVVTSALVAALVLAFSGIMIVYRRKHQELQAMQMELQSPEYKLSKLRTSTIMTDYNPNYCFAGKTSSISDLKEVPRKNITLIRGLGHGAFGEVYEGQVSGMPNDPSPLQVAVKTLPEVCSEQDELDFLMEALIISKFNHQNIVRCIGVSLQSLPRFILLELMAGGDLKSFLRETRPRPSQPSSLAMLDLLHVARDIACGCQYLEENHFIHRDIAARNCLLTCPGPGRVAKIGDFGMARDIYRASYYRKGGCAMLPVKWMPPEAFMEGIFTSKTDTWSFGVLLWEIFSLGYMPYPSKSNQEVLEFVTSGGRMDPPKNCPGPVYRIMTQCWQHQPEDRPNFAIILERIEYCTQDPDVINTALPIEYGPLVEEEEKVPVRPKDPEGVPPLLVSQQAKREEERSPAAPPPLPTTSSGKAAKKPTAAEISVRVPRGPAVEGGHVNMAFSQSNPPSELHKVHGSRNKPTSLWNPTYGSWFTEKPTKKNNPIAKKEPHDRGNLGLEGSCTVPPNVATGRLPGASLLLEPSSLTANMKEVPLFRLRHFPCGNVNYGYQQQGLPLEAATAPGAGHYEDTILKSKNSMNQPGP

Row | Compound | IC50 [1] | IC50 [2] | IC50 [3] | IC50 [4]
1 | COc1cc(N2CCOC[C@@H]2C)ccc1Nc1nc(Nc2cc(F)c(F)cc2C(N)=O)c2cc[nH]c2n1 [Example 105, 4,5-difluoro-2-[(2-{[4-[(3S)-3-methyl-4-morpholinyl]-2-(methyloxy)phenyl]amino}-1H-pyrrolo[2,3-d]pyrimidin-4-yl)amino]benzamide] | 1.26 to 3.98 nM | < 100 nM | < 100 nM | 
2 | COc1cc(N2CCC(N3CC[C@H](F)C3)CC2)ccc1Nc1nc(Nc2cc(F)ccc2C(N)=O)c2cc[nH]c2n1 [Example 75, 4-fluoro-2-[(2-{[4-{4-[(3S)-3-fluoro-1-pyrrolidinyl]-1-piperidinyl}-2-(methyloxy)phenyl]amino}-1H-pyrrolo[2,3-d]pyrimidin-4-yl)amino]benzamide] | 1.26 to 3.98 nM | < 100 nM | < 100 nM | 
3 | CCCNC(=O)c1c(F)cccc1Nc1nc(Nc2cc3c(cc2OC)CCN3C(=O)CN(C)C)nc2[nH]ccc12 [Example 156, 2-[(2-{[1-(N,N-dimethylglycyl)-5-(methyloxy)-2,3-dihydro-1H-indol-6-yl]amino}-1H-pyrrolo[2,3-d]pyrimidin-4-yl)amino]-6-fluoro-N-propylbenzamide] | 0.251 to 1 nM | 100 to 500 nM | 100 to 500 nM | 250 to 1000 nM
4 | COc1cc(N2CCC(N3CC[C@H](F)C3)CC2)ccc1Nc1nc(Nc2cccc(F)c2C(N)=O)c2cc[nH]c2n1 [Example 43, 2-fluoro-6-[(2-{[4-{4-[(3S)-3-fluoro-1-pyrrolidinyl]-1-piperidinyl}-2-(methyloxy)phenyl]amino}-1H-pyrrolo[2,3-d]pyrimidin-4-yl)amino]benzamide] | 1.26 to 3.98 nM | 100 to 500 nM | 100 to 500 nM | 
5 | COc1cc(N2CCC(N3CCOCC3)CC2)ccc1Nc1nc(Nc2ccc(F)cc2C(N)=O)c2cc[nH]c2n1 [Example 59, 5-fluoro-2-{[2-({2-(methyloxy)-4-[4-(4-morpholinyl)-1-piperidinyl]phenyl}amino)-1H-pyrrolo[2,3-d]pyrimidin-4-yl]amino}benzamide] | 0.251 to 1 nM | < 100 nM |  | 
6 | COc1cc(N2CCN(C(C)C)CC2)c(OC)cc1Nc1nc(Nc2cc(F)ccc2C(N)=O)c2cc[nH]c2n1 [Example 82, 4-fluoro-2-[(2-{[4-[4-(1-methylethyl)-1-piperazinyl]-2,5-bis(methyloxy)phenyl]amino}-1H-pyrrolo[2,3-d]pyrimidin-4-yl)amino]benzamide] | 1.26 to 3.98 nM | < 100 nM | 100 to 500 nM | 
7 | CNC(=O)c1c(F)cccc1Nc1nc(Nc2cc3c(cc2OC)CCCN3C(=O)CN2CCCCC2)nc2[nH]ccc12 [Example 217, 2-fluoro-N-methyl-6-[(2-{[6-(methyloxy)-1-(1-piperidinylacetyl)-1,2,3,4-tetrahydro-7-quinolinyl]amino}-1H-pyrrolo[2,3-d]pyrimidin-4-yl)amino]benzamide] | 5.01 to 200 nM | < 100 nM | < 100 nM | < 250 nM
8 | COc1cc(N2CCN(C(C)C)CC2)ccc1Nc1nc(Nc2ccc(Br)cc2C(N)=O)c2cc[nH]c2n1 [Example 68, 5-bromo-2-[(2-{[4-[4-(1-methylethyl)-1-piperazinyl]-2-(methyloxy)phenyl]amino}-1H-pyrrolo[2,3-d]pyrimidin-4-yl)amino]benzamide] | 0.251 to 1 nM | 100 to 500 nM |  | 
9 | COc1cc(N2CCN(C(C)=O)CC2)ccc1Nc1nc(Nc2cc(F)c(F)cc2C(N)=O)c2cc[nH]c2n1 [Example 103, 2-[(2-{[4-(4-acetyl-1-piperazinyl)-2-(methyloxy)phenyl]amino}-1H-pyrrolo[2,3-d]pyrimidin-4-yl)amino]-4,5-difluorobenzamide] | 1.26 to 3.98 nM | < 100 nM | 100 to 500 nM | 
10 | COc1cc(N2CCC(C3CCN(CCS(C)(=O)=O)CC3)CC2)ccc1Nc1nc(Nc2cccc(F)c2C(N)=O)c2cc[nH]c2n1 [Example 112, 2-fluoro-6-({2-[(2-(methyloxy)-4-{1′-[2-(methylsulfonyl)ethyl]-4,4′-bipiperidin-1-yl}phenyl)amino]-1H-pyrrolo[2,3-d]pyrimidin-4-yl}amino)benzamide] | 0.251 to 1 nM | 100 to 500 nM |  | < 250 nM
11 | COc1cc(N2CCC(N3CC[C@@H](F)C3)CC2)ccc1Nc1nc(Nc2cc(F)ccc2C(N)=O)c2cc[nH]c2n1 [Example 76, 4-fluoro-2-[(2-{[4-{4-[(3R)-3-fluoro-1-pyrrolidinyl]-1-piperidinyl}-2-(methyloxy)phenyl]amino}-1H-pyrrolo[2,3-d]pyrimidin-4-yl)amino]benzamide] | 1.26 to 3.98 nM | < 100 nM | 100 to 500 nM | 
12 | COc1cc(N2CCC(N3CCCC(F)(F)C3)CC2)ccc1Nc1nc(Nc2cc(F)ccc2C(N)=O)c2cc[nH]c2n1 [Example 77, 2-[(2-{[4-(3,3-difluoro-1,4′-bipiperidin-1′-yl)-2-(methyloxy)phenyl]amino}-1H-pyrrolo[2,3-d]pyrimidin-4-yl)amino]-4-fluorobenzamide] | 1.26 to 3.98 nM | 100 to 500 nM | < 100 nM | 
13 | COc1cc(N2CCN(C(C)C)CC2)ccc1Nc1nc(Nc2cc(F)cc(OC)c2C(N)=O)c2cc[nH]c2n1 [Example 88] | 1.26 to 3.98 nM | > 500 nM | > 500 nM | 
14 | COc1cc(N2CCC(O)CC2)ccc1Nc1nc(Nc2cc(F)c(F)cc2C(N)=O)c2cc[nH]c2n1 [Example 99] | 0.251 to 1 nM | < 100 nM |  | 
15 | COc1cc(N2CCC(N3CCOCC3)CC2)ccc1Nc1nc(Nc2cc(F)c(F)cc2C(N)=O)c2cc[nH]c2n1 [Example 101, 4,5-difluoro-2-{[2-({2-(methyloxy)-4-[4-(4-morpholinyl)-1-piperidinyl]phenyl}amino)-1H-pyrrolo[2,3-d]pyrimidin-4-yl]amino}benzamide] | 0.251 to 1 nM | < 100 nM | > 500 nM | 
16 | COc1cc(C2=CCN(C(C)C)CC2)ccc1Nc1nc(Nc2cc(F)ccc2C(N)=O)c2cc[nH]c2n1 [Example 72, 4-fluoro-2-[(2-{[4-[1-(1-methylethyl)-1,2,3,6-tetrahydro-4-pyridinyl]-2-(methyloxy)phenyl]amino}-1H-pyrrolo[2,3-d]pyrimidin-4-yl)amino]benzamide] | 0.251 to 1 nM | < 100 nM | 100 to 500 nM | 
17 | COc1cc(N2CCOC[C@@H]2C)ccc1Nc1nc(Nc2ccc(F)cc2C(N)=O)c2cc[nH]c2n1 [Example 61, 5-fluoro-2-[(2-{[4-[(3S)-3-methyl-4-morpholinyl]-2-(methyloxy)phenyl]amino}-1H-pyrrolo[2,3-d]pyrimidin-4-yl)amino]benzamide] | 1.26 to 3.98 nM | < 100 nM | < 100 nM | 
18 | COc1cc(N2CCOCC2)ccc1Nc1nc(Nc2cc(F)c(F)cc2C(N)=O)c2cc[nH]c2n1 [Example 104, 4,5-difluoro-2-[(2-{[2-(methyloxy)-4-(4-morpholinyl)phenyl]amino}-1H-pyrrolo[2,3-d]pyrimidin-4-yl)amino]benzamide] | 1.26 to 3.98 nM | < 100 nM |  | 
19 | COc1cc(N2CCC(N3CCCCC3)CC2)ccc1Nc1nc(Nc2cc(F)c(F)cc2C(N)=O)c2cc[nH]c2n1 [Example 100, 2-[(2-{[4-(1,4′-bipiperidin-1′-yl)-2-(methyloxy)phenyl]amino}-1H-pyrrolo[2,3-d]pyrimidin-4-yl)amino]-4,5-difluorobenzamide] | 0.251 to 1 nM | < 100 nM |  | 
20 | COc1ccc(N2CCN(C)CC2)cc1Nc1nc(Nc2ccccc2C(N)=O)c2cc[nH]c2n1 [Example 9, 2-[(2-{[2-(methyloxy)-5-(4-methyl-1-piperazinyl)phenyl]amino}-1H-pyrrolo[2,3-d]pyrimidin-4-yl)amino]benzamide] | 1.26 to 3.98 nM | 100 to 500 nM |  | 
21 | CN(C)CC(=O)Nc1ccc(Cl)c(Nc2nc(Nc3ccccc3C(N)=O)c3cc[nH]c3n2)c1 [Example 18, 2-{[2-({2-chloro-5-[(N,N-dimethylglycyl)amino]phenyl}amino)-1H-pyrrolo[2,3-d]pyrimidin-4-yl]amino}benzamide] | 1.26 to 3.98 nM | < 100 nM |  | 
22 | COc1ccc(N2CCN(C(C)C)CC2)cc1Nc1nc(Nc2ccccc2C(N)=O)c2cc[nH]c2n1 [Example 10, 2-[(2-{[5-[4-(1-methylethyl)-1-piperazinyl]-2-(methyloxy)phenyl]amino}-1H-pyrrolo[2,3-d]pyrimidin-4-yl)amino]benzamide] | 1.26 to 3.98 nM | 100 to 500 nM | 100 to 500 nM | 
23 | COc1cc(N2CCOC[C@@H]2C)ccc1Nc1nc(Nc2cccc(F)c2C(N)=O)c2cc[nH]c2n1 [Example 49, 2-fluoro-6-[(2-{[4-[(3S)-3-methyl-4-morpholinyl]-2-(methyloxy)phenyl]amino}-1H-pyrrolo[2,3-d]pyrimidin-4-yl)amino]benzamide] | 1.26 to 3.98 nM | 100 to 500 nM | 100 to 500 nM | 
24 | CCCN1CCC=C(c2ccc(Nc3nc(Nc4cc(F)ccc4C(=O)N[C@@H](C)CC)c4cc[nH]c4n3)c(OC)c2)C1 [Example 87, 4-fluoro-2-[(2-{[2-(methyloxy)-4-(1-propyl-1,2,5,6-tetrahydro-3-pyridinyl)phenyl]amino}-1H-pyrrolo[2,3-d]pyrimidin-4-yl)amino]-N-[(1S)-1-methylpropyl]benzamide] | 0.251 to 1 nM | > 500 nM | > 500 nM | 
25 | COc1cc(N2CCC[C@H](O)C2)ccc1Nc1nc(Nc2cc(F)ccc2C(N)=O)c2cc[nH]c2n1 [Example 74, 4-fluoro-2-[(2-{[4-[(3S)-3-hydroxy-1-piperidinyl]-2-(methyloxy)phenyl]amino}-1H-pyrrolo[2,3-d]pyrimidin-4-yl)amino]benzamide] | 1.26 to 3.98 nM | 100 to 500 nM | 100 to 500 nM | 
